Each structure is given as a SMILES string. Read-outs that look alike come from different tables or passages of the source.

Common to all, as to type: cell-based
For assay [1], the target named is T1, RhlR (Pseudomonas aeruginosa, UniProt P54292). The assay is described as follows: RhlR reporter antagonism in E. coli, […] vs […] BHL. The note with it: read-out: E. coli / RhlR ^b / antagonism (%) ^g.
Assay [2] addresses T1, RhlR. The assay is described as follows: RhlR reporter antagonism in E. coli, […] vs […] BHL. Particulars: read-out: E. coli / RhlR ^b / antagonism (%) ^g. This is another data set of the same source.
Assay [3] concerns the target T1, RhlR. The assay is described as follows: RhlR reporter agonism in E. coli at […]. The note with it: 100 µM.

T1 sequence (P54292 whole entry): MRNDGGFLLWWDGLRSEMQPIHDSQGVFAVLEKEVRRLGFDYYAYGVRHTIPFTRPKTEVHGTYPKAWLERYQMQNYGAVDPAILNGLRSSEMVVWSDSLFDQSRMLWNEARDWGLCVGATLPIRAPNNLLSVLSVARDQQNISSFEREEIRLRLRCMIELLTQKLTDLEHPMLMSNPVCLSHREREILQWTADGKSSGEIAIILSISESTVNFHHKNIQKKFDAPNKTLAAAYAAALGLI

For `O=C(Cc1ccc(I)cc1)N[C@H]1CCOC1=O` [C10], the inhibition at 100 µM on RhlR [1] came to 84%. Turning to `O=C(COc1ccc(I)cc1)N[C@H]1CCOC1=O` [E22], the inhibition at 100 µM on RhlR [2] was found to be 74%. Turning to `O=C(CCCOc1cccc(Br)c1)NC1CCSC1=O` (stereo not drawn) [compound 5, mBTL], the “PAO1 / pyocyanin inhibition (%)” value on RhlR [3] turned out to be 83 % agonism at 100 µM.

For the origin of these results see publication PMC4372995 (Journal of the American Chemical Society, 2015).
